How the values were obtained:
[1] = target: T1, TNIK kinase [amino acid sequence (1-367), Invitrogen] (Homo sapiens, UniProt Q9UKE5); assay: TNIK kinase inhibition assay (Z-lyte FRET-peptide); format: biochemical; conditions: 0.625 nM TNIK kinase, 2 μM Ser/Thr 7 peptide, 64 μM ATP, one hour at room temperature
T1 construct: purchased Invitrogen

[2] = Metabolic stability in human liver microsomes; format: in vitro ADME; conditions: LM Clint (intrinsic clearance); 1 μM test compound, 0.5 mg protein/mL microsome, 37° C., up to 60 min
Protocol: 2.1. Test Compound and Control Working Solution Preparation: Working solution: 5 µL of compound and control stock solution (10 mM in dimethyl sulfoxide (DMSO)) were diluted with 495 μL of acetonitrile (ACN) (intermediate solution concentration: 100 μM, 99% ACN).
2.2.1. […] 2.2.2. Preparation Procedure: The appropriate amount of NADPH powder were weighed and diluted into a 10 mM MgCl2 solution (working solution concentration: 10 unit/mL; final concentration in reaction system: 1 unit/mL).
2.3.2. Preparation Procedure: The appropriate concentrations of microsome working solutions were prepared in 100 mM potassium phosphate buffer. 2.4. Stop Solution Preparation: Cold (4° C.) acetonitrile (ACN) containing 200 ng/mL tolbutamide and 200 ng/mL labetalol as internal standards (IS) were used as the stop solution.
2.5.1. Pre-warm empty ‘Incubation’ plates T60 and NCF60 for 10 min minutes. 2.5.2. Liver microsomes were diluted to 0.56 mg/mL in 100 mM phosphate buffer. 2.5.3. 445 uL microsome working solutions (0.56 mg/mL) were transferred into pre-warmed ‘Incubation’ plates T60 and NCF60. Then ‘Incubation’ plates T60 and NCF60 were pre-incubated for 10 min at 37° C. with constant shaking. 54 μL liver microsomes were transferred to blank plate, then 6 μL NAPDH cofactor were added to the blank plate, and then 180 μL quenching solution can be added to blank plate. 2.5.4 5 μL compound working solution (100 μM) were added into ‘incubation’ plates (T60 and NCF60) containing microsomes and mix 3 times thoroughly. 2.5.5. For the NCF60 plate, 50 uL of buffer were added and were mixed 3 times thoroughly. Start timing; plate was incubated at 37° C. for 60 min while shaking. 2.5.6. In ‘Quenching’ plate TO, 180 μL quenching solution were added and 6 μL NAPDH cofactor were added. Ensured the plate was chilled to prevent evaporation. 2.5.7. For the T60 plate, were mixed 3 times thoroughly, and immediately removed 54 μL mixture for the 0-min time point to ‘Quenching’ plate. Then 44 μL NAPDH cofactor were added to incubation plate (T60). Start timing; plate were incubated at 37° C. for 60 min while shaking.
2.5.8. At 5, 10, 20, 30, and 60 min, 180 μL quenching solution were added to ‘Quenching’ plates, mix once, and were serially transferred 60 μL sample from T60 plate per time point to ‘Quenching’ plates.
2.5.9. For NCF60: were mixed once, and 60 μL sample were transferred from the NCF60 incubation to ‘Quenching’ plate containing quenching solution at the 60-min time point.
2.5.10. All sampling plates were shaken for 10 min, then centrifuged at 4000 rpm for 20 minutes at 4° C. 2.5.11. 80 μL supernatant were transferred into 240 μL HPLC water, and were mixed by plate shaker for 10 min. 2.5.12. Each bioanalysis plate were sealed and shaken for 10 minutes prior to LC-MS/MS analysis.
3.1. The equation of first order kinetics were used to calculate T1/2 and Intrinsic clearance (CLint mic) in (μL/min/mg).
Equation of first order kinetic.

T1 sequence (Q9UKE5 1-367): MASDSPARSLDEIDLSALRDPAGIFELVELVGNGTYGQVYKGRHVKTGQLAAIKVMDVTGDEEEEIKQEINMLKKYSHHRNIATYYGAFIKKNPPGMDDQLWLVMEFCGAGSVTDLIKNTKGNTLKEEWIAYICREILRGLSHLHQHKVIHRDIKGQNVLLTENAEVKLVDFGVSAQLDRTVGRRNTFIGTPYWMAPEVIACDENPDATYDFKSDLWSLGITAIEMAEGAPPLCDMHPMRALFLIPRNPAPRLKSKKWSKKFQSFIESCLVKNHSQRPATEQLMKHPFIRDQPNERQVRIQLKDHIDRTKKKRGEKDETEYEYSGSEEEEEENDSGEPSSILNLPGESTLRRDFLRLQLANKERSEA

[2H]C([2H])([2H])N1CC(c2ccc(NC(=O)c3nc(-c4c(-c5ccc(F)cc5)ncn4C4CCC4)cs3)nc2)C1 [Compound 121, 4-(1-cyclobutyl-4-(4-fluorophenyl)-1H-imidazol-5-yl)-N-(5-(1-(trideuteriomethyl)azetidin-3-yl)pyridin-2-yl)thiazole-2-carboxamide]
IC50 [1]: 0.001 to 0.012 µM
Human Liver Microsome (μM/min/mg) [2]: ++ (10-100 μM/min/mg as ++)

O=C(Nc1ccc(N2CCOCC2)cn1)c1csc(-c2c(-c3ccc(F)cc3)ncn2C2CC(F)(F)C2)n1 [Compound 65, 2-(1-(3,3-difluorocyclobutyl)-4-(4-fluorophenyl)-1H-imidazol-5-yl)-N-(5-morpholinopyridin-2-yl)thiazole-4-carboxamide]
IC50 [1]: 0.001 to 0.012 µM
Human Liver Microsome (μM/min/mg) [2]: ++ (10-100 μM/min/mg as ++)

[2H]C([2H])([2H])N1CCN(c2ccc(NC(=O)c3c[nH]c(-c4c(-c5ccc(F)cc5)ncn4C(C)C)n3)nc2)CC1 [Compound 124, 2-[5-(4-fluorophenyl)-3-isopropyl-imidazol-4-yl]-N-[5-[4 (trideuteriomethyl)piperazin-1-yl]-2-pyridyl]-1H-imidazole-4-carboxamide]
IC50 [1]: 0.001 to 0.012 µM
Human Liver Microsome (μM/min/mg) [2]: ++ (10-100 μM/min/mg as ++)

CC(C)n1cnc(-c2ccc(F)cc2)c1-c1nc(C(=O)Nc2ccc(C3CCOCC3)cn2)c[nH]1 [Compound 53, 5′-(4-fluorophenyl)-3′-isopropyl-N-(5-(tetrahydro-2H-pyran-4-yl)pyridin-2-yl)-1H,3′H-[2,4′-biimidazole]-4-carboxamide]
IC50 [1]: 0.001 to 0.012 µM
Human Liver Microsome (μM/min/mg) [2]: ++ (10-100 μM/min/mg as ++)

CC(C)n1cnc(-c2ccc(F)cc2)c1-c1nc(C(=O)Nc2ccc(N3CCN(C)CC3)cn2)c[nH]1 [Compound 21, 5′-(4-fluorophenyl)-3′-isopropyl-N-(5-(4-methylpiperazin-1-yl)pyridin-2-yl)-1H,3′H-[2,4′-biimidazole]-4-carboxamide]
IC50 [1]: 0.001 to 0.012 µM
Human Liver Microsome (μM/min/mg) [2]: ++ (10-100 μM/min/mg as ++)

[2H]C([2H])([2H])N1CC(c2ccc(NC(=O)c3csc(-c4c(-c5ccc(F)cc5)noc4C(C)C)n3)nc2)C1 [Compound 115, 2-[3-(4-fluorophenyl)-5-isopropyl-isoxazol-4-yl]-N-[5-[1-(trideuteriomethyl)azetidin-3-yl]-2-pyridyl]thiazole-4-carboxamide]
IC50 [1]: 0.001 to 0.012 µM
Human Liver Microsome (μM/min/mg) [2]: ++ (10-100 μM/min/mg as ++)

CC(C)n1cnc(-c2ccc(F)cc2)c1-c1nc(C(=O)Nc2ccc3c(c2)CN(C)CC3)cs1 [Compound 56, 2-(4-(4-fluorophenyl)-1-isopropyl-1H-imidazol-5-yl)-N-(2-methyl-1,2,3,4-tetrahydroisoquinolin-7-yl)thiazole-4-carboxamide]
IC50 [1]: 0.001 to 0.012 µM
Human Liver Microsome (μM/min/mg) [2]: + (>100 μM/min/mg as +)

CC(C)c1onc(-c2ccc(F)cc2)c1-c1nc(C(=O)Nc2ccc(C3CN(C)C3)cc2F)cs1 [Compound 88, N-(2-fluoro-4-(1-methylazetidin-3-yl)phenyl)-2-(3-(4-fluorophenyl)-5-isopropylisoxazol-4-yl)thiazole-4-carboxamide]
IC50 [1]: 0.001 to 0.012 µM
Human Liver Microsome (μM/min/mg) [2]: ++ (10-100 μM/min/mg as ++)

CN1C2CC1CN(c1ccc(NC(=O)c3csc(-c4c(-c5ccc(F)cc5)ncn4C4CC(F)(F)C4)n3)c(F)c1)C2 [Compound 86, 2-(1-(3,3-difluorocyclobutyl)-4-(4-fluorophenyl)-1H-imidazol-5-yl)-N-(2-fluoro-4-(6-methyl-3,6-diazabicyclo[3.1.1]heptan-3-yl)phenyl)thiazole-4-carboxamide]
IC50 [1]: 0.001 to 0.012 µM
Human Liver Microsome (μM/min/mg) [2]: ++ (10-100 μM/min/mg as ++)

CC(C)n1cnc(-c2ccc(F)cc2)c1-c1nc(C(=O)Nc2ccc(N3CCN(C)CC3)cc2F)cs1 [Compound 6, N-(2-fluoro-4-(4-methylpiperazin-1-yl)phenyl)-2-(4-(4-fluorophenyl)-1-isopropyl-1H-imidazol-5-yl)thiazole-4-carboxamide]
IC50 [1]: 0.001 to 0.012 µM
Human Liver Microsome (μM/min/mg) [2]: + (>100 μM/min/mg as +)

CC(C)c1onc(-c2ccc(F)cc2)c1-c1nc(C(=O)Nc2ccc(N3CC4CC(C3)N4C)cc2F)cs1 [Compound 98, N-(2-fluoro-4-(6-methyl-3,6-diazabicyclo[3.1.1]heptan-3-yl)phenyl)-2-(3-(4-fluorophenyl)-5-isopropylisoxazol-4-yl)thiazole-4-carboxamide]
IC50 [1]: 0.001 to 0.012 µM
Human Liver Microsome (μM/min/mg) [2]: ++ (10-100 μM/min/mg as ++)

CC(C)n1cnc(-c2ccc(F)cc2)c1-c1nc(C(=O)Nc2ccc(N3CCOCC3)cc2F)cs1 [Compound 100, N-(2-fluoro-4-morpholinophenyl)-2-(4-(4-fluorophenyl)-1-isopropyl-1H-imidazol-5-yl) thiazole-4-carboxamide]
IC50 [1]: 0.001 to 0.012 µM
Human Liver Microsome (μM/min/mg) [2]: ++ (10-100 μM/min/mg as ++)

CC(C)n1cnc(-c2ccc(F)cc2)c1-c1nc(C(=O)Nc2ccc(C3=C[C@H]4CC[C@@H](C3)N4C)cn2)cs1 [Compound 61, 2-(4-(4-fluorophenyl)-1-isopropyl-1H-imidazol-5-yl)-N-(5-((1R,5S)-8-methyl-8-azabicyclo[3.2.1]oct-2-en-3-yl)pyridin-2-yl)thiazole-4-carboxamide]
IC50 [1]: 0.001 to 0.012 µM
Human Liver Microsome (μM/min/mg) [2]: ++ (10-100 μM/min/mg as ++)

CN1CCN(c2ccc(NC(=O)c3csc(-c4c(-c5ccc(F)cc5)ncn4C4CC4)n3)nc2)CC1 [Compound 42, 2-(1-cyclopropyl-4-(4-fluorophenyl)-1H-imidazol-5-yl)-N-(5-(4-methylpiperazin-1-yl)pyridin-2-yl)thiazole-4-carboxamide]
IC50 [1]: 0.001 to 0.012 µM
Human Liver Microsome (μM/min/mg) [2]: ++ (10-100 μM/min/mg as ++)

CCN1C2CC1CN(c1ccc(NC(=O)c3csc(-c4c(-c5ccc(F)cc5)ncn4C4CC(F)(F)C4)n3)nc1)C2 [Compound 84, 2-(1-(3,3-difluorocyclobutyl)-4-(4-fluorophenyl)-1H-imidazol-5-yl)-N-(5-(6-ethyl-3,6-diazabicyclo[3.1.1]heptan-3-yl)pyridin-2-yl)thiazole-4-carboxamide]
IC50 [1]: 0.001 to 0.012 µM
Human Liver Microsome (μM/min/mg) [2]: ++ (10-100 μM/min/mg as ++)

CC(C)c1onc(-c2ccc(F)cc2)c1-c1nc(C(=O)Nc2ccc(C3COC3)cc2F)cs1 [Compound 92, N-(2-fluoro-4-(oxetan-3-yl)phenyl)-2-(3-(4-fluorophenyl)-5-isopropylisoxazol-4-yl)thiazole-4-carboxamide]
IC50 [1]: 0.012 to 0.15 µM
Human Liver Microsome (μM/min/mg) [2]: ++ (10-100 μM/min/mg as ++)

CC(C)n1cnc(-c2ccc(F)cc2)c1-c1nc(C(=O)Nc2ccc(N3CCOCC3)cn2)cs1 [Compound 99, 2-(4-(4-fluorophenyl)-1-isopropyl-1H-imidazol-5-yl)-N-(5-morpholinopyridin-2-yl)thiazole-4-carboxamide]
IC50 [1]: 0.001 to 0.012 µM
Human Liver Microsome (μM/min/mg) [2]: ++ (10-100 μM/min/mg as ++)

O=C(Nc1ccc(N2CCOCC2)cn1)c1coc(-c2c(-c3ccc(F)cc3)ncn2C2CC(F)(F)C2)n1 [Compound 66, 2-(1-(3,3-difluorocyclobutyl)-4-(4-fluorophenyl)-1H-imidazol-5-yl)-N-(5-morpholinopyridin-2-yl)oxazole-4-carboxamide]
IC50 [1]: 0.012 to 0.15 µM
Human Liver Microsome (μM/min/mg) [2]: ++ (10-100 μM/min/mg as ++)

CCN1CC(c2ccc(NC(=O)c3csc(-c4c(-c5ccc(F)cc5)ncn4C(C)C)n3)nc2)C1 [Compound 91, N-(5-(1-ethylazetidin-3-yl)pyridin-2-yl)-2-(4-(4-fluorophenyl)-1-isopropyl-1H-imidazol-5-yl)thiazole-4-carboxamide]
IC50 [1]: 0.001 to 0.012 µM
Human Liver Microsome (μM/min/mg) [2]: ++ (10-100 μM/min/mg as ++)

O=C(Nc1ccc(C2COC2)cn1)c1csc(-c2c(-c3ccc(F)cc3)ncn2C2CC(F)(F)C2)n1 [Compound 74, 2-(1-(3,3-difluorocyclobutyl)-4-(4-fluorophenyl)-1H-imidazol-5-yl)-N-(5-(oxetan-3-yl)pyridin-2-yl)thiazole-4-carboxamide]
IC50 [1]: 0.001 to 0.012 µM
Human Liver Microsome (μM/min/mg) [2]: + (>100 μM/min/mg as +)

Reference: patent publication US20240336611A1 (Insilico Medicine IP Limited, priority 2021, published 2024)
